Assay results from patent US5280111A, “Sulfated tocopheryl oligosaccharides and antiviral agents including the same as active ingredients” (Dainippon Ink and Chemicals, Inc., priority 1991, dated 1994).
Converted amounts (≈) assume the structure as drawn. Where two headings read alike, the source gives them in different places.

Legend:
Format in all cases: cell-based
HIV-1 = experiment: Anti-HIV assay: inhibition of virus induced cytopathogenicity in MT-4 cells (MTT method); details: for EC50: HIV-1-infected MT-4 cells, MOI 0.01, 5 days at 37° C., MTT method; for SI: ratio of CC50/EC50, 7200 min
Procedure: (§1) Activity of the compound against HIV-1 replication was based on the inhibition of virus induced cytopathogenicity in MT-4 cells. MT-4 cells were suspended in culture medium at 2.5×10^4 cells/ml and infected with HIV-1 at a multiplicity of infection (MOI) of 0.01. 100 μl of cell suspension was brought into microtiter tray wells containing various concentrations of the test compounds.
(§2) After 5 days of incubation at 37° C. using a CO2 incubator, the number of viable cells was determined by the MTT method.
(§3) The inhibitory effect on host cell viability (cytotoxicity) was also determined by the MTT method. All activities of the compounds are expressed as 50% inhibitory concentration, i.e., the concentration required to reduce the number of HIV-1-infected MT-4 cells or mock-infected MT-4 cells by 50%. These are expressed using EC50 and CC50. SI is expressed by the ratio of CC50 /EC50. (Reference document: Pauwels, et al., J. Virol Methods, 20 (1988) 309~321).
(§4) According to this method, the anti-HIV assay was carried out using the compounds obtained in Examples 9 to 14. In addition, AZT (3'-azido-3'-deoxythymidine) known as an anti-AIDS agent was employed as a comparative example.

MT-4 cells = experiment: Cytotoxicity: inhibitory effect on host cell viability, mock-infected MT-4 cells (MTT method); details: human, mt-4 cells, 120 h
Procedure: as §1, §2, §3, §4

[1] = as above; details: human; mock-infected MT-4 cells; 50% reduction of viable cells; MTT method; 5 days at 37° C.
Procedure: as §1, §2, §3, §4

**Q.** For “sulfated ester sodium salt of dl-α-tocopheryl β-D-glucosyl(1→3)-{β-D-glucosyl(1→3)}3 -β-D-glucoside (1) [Example 10]”, which EC50 (HIV-1) is on record?
**A.** The EC50 was 0.52 µg/mL.

**Q.** And the SI (HIV-1)?
**A.** Its SI is over 920.

**Q.** And the CC50 (MT-4 cells)?
**A.** The CC50 was over 480 µg/mL.

**Q.** Which EC50 (HIV-1) does the source give for “sulfated dl-α-tocopheryl β-D-galactosyl(1→4)-β-D-galactosyl(1→4)-β-D-lactoside [Example 14]” here?
**A.** The EC50 was 0.57 µg/mL.

**Q.** And the SI (HIV-1)?
**A.** The SI was 1151.

**Q.** What about the CC50 (MT-4 cells) of the same molecule?
**A.** Its CC50 is 656 µg/mL.

**Q.** What does the source list for “sulfated dl-α-tocopheryl β-D-galactosyl(1→4)-β-D-lactoside [Example 9]”?
**A.** EC50 (HIV-1): 1.03 µg/mL; SI (HIV-1): 587; CC50 (MT-4 cells): 606 µg/mL

**Q.** With `Cc1c(C)c2c(c(C)c1O[C@@H]1O[C@H](COS(=O)(=O)O)[C@@H](O[C@@H]3O[C@H](COS(=O)(=O)O)[C@H](O[C@@H]4O[C@H](COS(=O)(=O)O)[C@H](O[C@@H]5O[C@H](COS(=O)(=O)O)[C@H](OS(=O)(=O)O)[C@H](OS(=O)(=O)O)[C@H]5OS(=O)(=O)O)[C@H](OS(=O)(=O)O)[C@H]4OS(=O)(=O)O)[C@H](OS(=O)(=O)O)[C@H]3OS(=O)(=O)O)[C@H](OS(=O)(=O)O)[C@H]1OS(=O)(=O)O)CCC(C)(CCCC(C)CCCC(C)CCCC(C)C)O2` (mixture of isomers) [Example 13, sulfated dl-α-tocopheryl β-D-galactosyl(1→4)-β-D-galactosyl(1→4)-β-D-lactoside] as the molecule, how does the CC50 (MT-4 cells) read?
**A.** Its CC50 is 621 µg/mL.

**Q.** Which results are given for “sulfated ester sodium salt of dl-α-tocopheryl β-D-glucosyl(1→3)-{β-D-glucosyl(1→3)}7 -β-D-glucoside [Example 12]”?
**A.** EC50 (HIV-1): 0.44 µg/mL; SI (HIV-1): > 1000; CC50 (MT-4 cells): > 480 µg/mL

**Q.** With “sulfated ester sodium salt of dl-α-tocopheryl β-D-glucosyl(1→3)-{β-D-glucosyl(1→3)}3 -β-D-glucoside (2) [Example 11]” as the molecule, how does the EC50 (HIV-1) read?
**A.** The EC50 was 0.45 µg/mL.

**Q.** And the SI (HIV-1)?
**A.** Its SI is over 1000.

**Q.** What about the CC50 (MT-4 cells) of the same molecule?
**A.** Its CC50 is over 480 µg/mL.

**Q.** With `Cc1cn([C@H]2C[C@H](N=[N+]=[N-])[C@@H](CO)O2)c(=O)[nH]c1=O` [AZT, 3'-azido-3'-deoxythymidine, reference compound] as the molecule, how does the EC50 (HIV-1; Human immunodeficiency virus 1, MT4, 120 h, read-out: EC50) read?
**A.** Its EC50 is 0.0013 µg/mL (≈ 0.00486 µM).

**Q.** What about the SI (HIV-1) of the same molecule?
**A.** The SI was 2160.

**Q.** What about the CC50 at 120 h [1] of the same molecule?
**A.** The CC50 at 120 h was 2.88 µg/mL (≈ 10.8 µM).
